Results as given in patent publication US20240285497A1, “METHOD FOR EVALUATING AN ABILITY OF A TEST SAMPLE TO TRIGGER A FOREIGN BODY REACTION IN THE SKIN, A METHOD FOR SCREENING A SUBSTANCE HAVING AN ABILITY TO INHIBIT A FOREIGN BODY REACTION IN THE SKIN, AND AN AGENT FOR INHIBITING A FOREIGN BODY REACTION IN THE SKIN” (priority 2021, published 2024).
pEC50: −log10 of the molar value. Marks after values point to notes of the source that are not given here.

Assays:
[1] = test system: xenobiotic responsive element (XRE); test: Evaluation of ability to trigger a foreign body reaction using XRE-NLuc::HaCaT reporter cells (NLuc luminescence per viable cell); type: cell-based, human; settings: XRE-NLuc::HaCaT cells; for pEC50: reporter protein expression; for Present Experiment Maximum Effective concentration Max. Induction: concentration at which reporter expression was maximized
Method: First, XRE-NLuc::HaCaT cells were suspended in a DMEM medium at the density of 1×10^5 cell/mL, and 100 μL of the thus obtained suspension was added to each well of white 96 well plates (Thermo Fisher Scientific, MA, U.S.A.; Catalogue No.: 136102) so that the number of the cells in each well was 10,000 cells/well. In accordance with a conventional method, the cells were incubated at 37° C., 5% CO2 for 24 hours. Thereafter, the DMEM medium was removed, and 100 μL of a new DMEM medium containing FICZ (6-Formylindolo[3,2-b]carbazole; CAS RN: 172922-91-7) as a test sample at a predetermined concentration was added, followed by further incubation for 24 hours at 37° C., 5% CO2. FICZ is known as a substance that triggers a foreign body reaction in which XRE is involved. Meanwhile, negative controls were prepared by adding 100 μL of a DMEM medium containing no FICZ instead of the DMEM medium containing FICZ, which were also incubated for 24 hours at 37° C., 5% CO2.
(§1) After the above-described incubation for 24 hours, the number of cells in each well was counted by a colorimetric method based on the degradation of tetrazolium salt (WST-1) by mitochondrial dehydrogenase in viable cells. Specifically, 3 μL of Premix WST-1 (Product Name “Premix WST-1 Cell Proliferation Assay System”; Takara Bio Inc., Shiga, Japan; Catalogue No.: MK400) was added to each well of 96 well plates, and then the cells were cultured for 1 hour at 37° C., 5% CO2. Thereafter, 93 μL of cell culture supernatant was removed from each well to measure the absorbance of the supernatant in each well. The removed supernatants were transferred to transparent 96 well plates, and then the absorbance at 450 nm (A450) and, as a reference wavelength, the absorbance at 670 nm (A670) were measured using iMark microplate reader (Bio-Rad; Catalogue No.: 168-1130JA). A value (A450-A670) was obtained by subtracting the absorbance at 670 nm (A670) from the absorbance at 450 nm (A450). The relative viable cell count (%) was expressed as a relative value with the value (A450-A670) obtained for the negative control as 100%.
Meanwhile, the expression level of the reporter protein was measured using samples left on the white 96-well plates after removing the supernatants for the viable cell count measurement. Briefly, 7 μL of Nano-Glo Luciferase Assay System (Promega; Catalogue No.: N110) was added to each well of the white 96-well plate. After 3 mins, the luminescence intensity obtained from the reporter protein produced by XRE-NLuc::HaCaT cells in each well was measured using GloMax Navigator Microplate Luminometer (Promega; Catalogue No.: GM2000). The obtained luminescence intensities were divided by the relative viable cell counts obtained by the above-described colorimetric method to obtain the expression level of the reporter protein (luminescence intensity) per unit number of viable cells.
In FIG. 3, the luminescence intensity per unit number of viable cells obtained from XRE-NLuc::HaCaT cells incubated with each of the DMEM medium containing FICZ at different concentrations was shown as a relative value, with the luminescence intensity per unit number of viable cells obtained for the negative control set to 1. […] In the figure, “*” and “**” indicate statistically significant differences (p<0.05 and p<0.01, respectively) from the negative control (“FICZ Concentration 0 nM” in FIG. 3).
(§2) The ability of each test sample to trigger a foreign body reaction was evaluated using XRE-NLuc::HaCaT cells in the same manner as in Experiment 1-2, except that I3C (Indole-3-carbinol, CAS RN: 700-06-1), ITE (2-(1′H-indole-3′-carbonyl)-thiazole-4-carboxylic acid methyl ester, CAS RN: 448906-42-1), and Indirubin (CAS RN: 479-41-4) were used instead of FICZ as test samples and the amount of each test sample added to the DMEM medium was appropriately changed.

in vitro = settings: human
Method: as §1, §2

XRE-NLuc::HaCaT cells = test: in vitro; settings: read-out: LC50; XRE-NLuc::HaCaT cells, median lethal concentration
Method: as §1, §2

[2] = test system: human liver cancer-derived cell line HepG2 cells; settings: cited from earlier work
[3] = test system: matrix metalloprotease 2 (MMP2) mRNA; test: MMP2 mRNA expression in HaCaT cells contacted with test substance, quantitative PCR; type: cell-based, human; settings: retinoic acid or nicotinamide at predetermined concentrations, 24 hours
Method: In this experiment, the effect of Fraglide-1 on the expression of MMP9 in the level of mRNA was examined first. Specifically, HaCaT cells were treated with Fraglide-1 in the same manner as described in Experiment 3-1 except that HaCaT cells were incubated for 24 hours in the medium containing 0 μM, 1 μM, 10 μM, and 100 μM of Fraglide-1 instead of being incubated for 24 hours in the medium containing both FICZ and Fraglide-1. The total RNA was then extracted, cDNA was prepared, and the quantitative PCR was performed using the obtained cDNA. Herein, the procedure of the quantitative PCR was the same as described in Experiment 3-1 except that the primers shown in below Table 4 were used. In this experiment, the expression of MMP2 mRNA was also quantified in addition to MMP9 mRNA. MMP2 is known as a MMP which is not transcriptionally regulated by a xenobiotic responsive element (XRE). […]
Next, experiments were performed to inhibit MMP9 and MMP2 in HaCaT cells using retinoic acid (CAS RN: 302-79-4) and nicotinamide (CAS RN: 98-92-0), which are known to be substances having anti-wrinkle effect. […] Then, the total RNA was extracted, cDNA was prepared, and the quantitative PCR was carried out using the obtained cDNA. […]

[4] = test system: TIMP-1 (Tissue Inhibitor of Matrix Metalloprotease-1) mRNA; test: TIMP-1 mRNA expression in HaCaT cells, quantitative PCR; type: cell-based, human; settings: Fraglide-1 1 μM, 10 μM, 100 μM; retinoic acid / nicotinic acid amide at predetermined concentrations; 24 hours
Method: Specifically, the mRNA expression of TIMP-1 in the HaCaT cells treated with Fraglide-1 was evaluated by performing quantitative PCR using cDNA obtained in Experiment 4-1. The procedure of quantitative PCR was the same as described in Experiment 4-1 except that the primers shown in below Table 5 were used.
In FIG. 14, the results obtained for each sample were shown in relative values normalized by setting the expression level of TIMP-1 in the HaCaT cells incubated for 24 hours in DMEM medium not containing Fraglide-1 (i.e., the non-treated HaCaT cells) as 1. The results shown in FIG. 14 are the mean of values obtained from three independent experiments, and the error bars represent standard deviation (SD).
On the other hand, as comparison, the similar evaluation was performed for retinoic acid and nicotinamide, which are known as active ingredients of anti-wrinkle agents, using cDNA obtained in Experiment 4-2. The procedure for quantitative PCR was the same as already described in Experiment 3-1, except that the primers shown in Table 5 were used.
In FIG. 15, the results obtained for each sample were shown in relative values normalized by setting the expression level of TIMP-1 in the HaCaT cells incubated for 24 hours in DMEM medium not containing either retinoic acid and nicotinic acid amide (i.e., the non-treated HaCaT cells) as 1. The results shown in FIG. 15 are the mean of values obtained from three independent experiments, and the error bars represent standard deviation (SD).

[5] = test system: matrix metalloprotease 9 (MMP9) mRNA; test: MMP9 mRNA expression in HaCaT cells contacted with test substance, quantitative PCR; type: cell-based, human; settings: retinoic acid or nicotinamide at predetermined concentrations, 24 hours
Method: In this experiment, the effect of Fraglide-1 on the expression of MMP9 in the level of mRNA was examined first. Specifically, HaCaT cells were treated with Fraglide-1 in the same manner as described in Experiment 3-1 except that HaCaT cells were incubated for 24 hours in the medium containing 0 μM, 1 μM, 10 μM, and 100 μM of Fraglide-1 instead of being incubated for 24 hours in the medium containing both FICZ and Fraglide-1. The total RNA was then extracted, cDNA was prepared, and the quantitative PCR was performed using the obtained cDNA. Herein, the procedure of the quantitative PCR was the same as described in Experiment 3-1 except that the primers shown in below Table 4 were used. In this experiment, the expression of MMP2 mRNA was also quantified in addition to MMP9 mRNA. MMP2 is known as a MMP which is not transcriptionally regulated by a xenobiotic responsive element (XRE).
In FIG. 9 and FIG. 10, the results obtained for each sample were shown as a relative value, with the mRNA expression level of MMP9 or MMP2 in the HaCaT cells incubated for 24 hours in DMEM medium without […] (i.e., the non-treated HaCaT cells) set to 1. The results shown in FIG. 9 and FIG. 10 were the mean obtained from three independent experiments. The error bars represent the standard deviation (SD).
Next, experiments were performed to inhibit MMP9 and MMP2 in HaCaT cells using retinoic acid (CAS RN: 302-79-4) and nicotinamide (CAS RN: 98-92-0), which are known to be substances having anti-wrinkle effect. Briefly, HaCaT cells were made in contact with retinoic acid and nicotinamide in the same manner as in Experiment 4-1 except that retinoic acid and nicotinamide were used instead of Fraglide-1. Then, the total RNA was extracted, cDNA was prepared, and the quantitative PCR was carried out using the obtained cDNA.
In FIG. 12 and FIG. 13, the results obtained for each sample were shown as a relative value, with the mRNA expression level of MMP9 or MMP2 in the HaCaT cells incubated for 24 hours in DMEM medium containing neither retinoic acid nor nicotinamide (i.e., the non-treated HaCaT cells) set to 1. The results shown in FIG. 12 and FIG. 13 were the mean obtained from three independent experiments. The error bars represent the standard deviation (SD).

[6] = test system: xenobiotic responsive element (XRE); test: Screening: inhibition of FICZ-triggered reporter protein expression in XRE-NLuc::HaCaT cells; type: cell-based, human; settings: FICZ 5,000 nM, 24 hours
Method: First, in the same manner as in Experiment 1-2, XRE-NLuc::HaCaT cells were suspended in a DMEM medium at the density of 1×10^5 cell/mL, and 100 μL of the thus obtained suspension was added to each well of white 96-well plates (Thermo Fisher Scientific, MA, U.S.A.; Catalogue No.: 136102) so that a number of the cells in each well was 10,000 cells/well. In accordance with the conventional method, the cells were incubated for 24 hours at 37° C. and 5% CO2. Thereafter, the DMEM medium was removed, and 100 μL of a new DMEM medium containing […] of FICZ, which was confirmed to activate the expression of the reporter protein in Experiment 1-2, and a candidate substance at a predetermined concentration. Meanwhile, reference samples were also prepared by adding 100 μL of a DMEM medium containing 5,000 nM of FICZ but not containing candidate substances. In this experiment, 5-hydroxy-4-phenyl-2(5H)butenolide (hereinafter also referred to as “Fraglide-1” or “FG1”) and, as a positive control, cinnamaldehyde, which is known to have an effect of inhibiting a foreign body reaction in which a xenobiotic responsive element (XRE) is involved, were used as test substances. After incubation for 24 hours at 37° C. and 5% CO2, the expression level of the reporter protein (luminescence intensity) and the viable cell count were measured in accordance with the method described in Experiment 1-2, and the expression of the reporter protein per unit number of viable cells was obtained. The inhibition rate (Inhibition (%)) of the expression of the reporter protein exerted by each candidate substance was calculated in accordance with the following formula.
In the above formula, (Reporter Expression)FICZ indicates the expression of the reporter protein per unit number of viable cells obtained from the reference samples: i.e., the cells incubated in the medium containing 5,000 nM of FICZ but not containing candidate substances. Meanwhile, (Reporter Expression)FICZ+TEST SAMPLE indicates the expression of the reporter protein per unit number of viable cells obtained from the cells incubated in the medium containing 5,000 nM of FICZ and a candidate substance. The results shown in FIG. 6 were the mean obtained from three independent experiments. The error bars represent the standard error (SE).

## O=C1Nc2ccccc2/C1=C1/Nc2ccccc2C1=O [Indirubin, indirubin]
[1]; Homo sapiens
  pEC50: 8.22
[1]
  Present Experiment Maximum Effective concentration Max. Induction: 0.25 µM
In vitro
  CC50 at 24 h: > 40 µM

## COC(=O)c1csc(C(=O)c2c[nH]c3ccccc23)n1 [ITE, 2-(1′H-indole-3′-carbonyl)-thiazole-4-carboxylic acid methyl ester]
[1]
  pEC50: 5.89
  Present Experiment Maximum Effective concentration Max. Induction: 25 µM
XRE-NLuc::HaCaT cells
  CC50: > 100 µM
[2]
  Literature Value Maximum Effective concentration Max. Induction: 10** μM

## NC(=O)c1cccnc1 [nicotinamide]
[3]
  expression of MMP2 mRNA vs non-treated HaCaT cells: decreased
[4]
  expression level of TIMP-1 mRNA vs non-treated HaCaT cells (in words): increase of the expression level of TIMP-1 was not observed
[5]
  expression of MMP9 mRNA vs non-treated HaCaT cells: decreased expression of MMP9 was also observed

## OCc1c[nH]c2ccccc12 [I3C, indole-3-carbinol]
[1]
  pEC50: 4.96
  Present Experiment Maximum Effective concentration Max. Induction: 350 µM
XRE-NLuc::HaCaT cells
  CC50: > 700 µM

## O=CC=Cc1ccccc1 [cinnamaldehyde]
[6]; 12.5 μM test substance
  Inhibition (%) of expression of the reporter protein triggered by FICZ: 8%
[6]; 25 μM test substance
  Inhibition (%) of expression of the reporter protein triggered by FICZ: 14%
[6]; 50 μM test substance
  Inhibition (%) of expression of the reporter protein triggered by FICZ: 16%
